Source: PubChem BioAssay (NCI)
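GI50 marks 50% less growth. TGI: concentration producing complete growth inhibition.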

Experiments:
Assay in all cases: growth of human tumour cells (NCI), 384-well format
CAKI-1 renal = tested on: CAKI-1 renal
RXF 393 renal = tested on: RXF 393 renal
PC-3 prostate = tested on: PC-3 prostate
MDA-MB-468 breast = tested on: MDA-MB-468 breast
SK-MEL-2 melanoma = tested on: SK-MEL-2 melanoma
RPMI-8226 leukemia = tested on: RPMI-8226 leukemia
NCI-H23 lung = tested on: NCI-H23 lung
NCI/ADR-RES ovarian = tested on: NCI/ADR-RES ovarian
SR leukemia = tested on: SR leukemia
HCT-15 colon = tested on: HCT-15 colon
EKVX NSCLC = tested on: EKVX NSCLC
HCC-2998 colon = tested on: HCC-2998 colon
HT29 colon = tested on: HT29 colon
UO-31 renal = tested on: UO-31 renal
LOX IMVI melanoma = tested on: LOX IMVI melanoma
NCI-H460 NSCLC = tested on: NCI-H460 NSCLC
SF-295 CNS = tested on: SF-295 CNS
HS 578T breast = tested on: HS 578T breast
HL-60(TB) leukemia = tested on: HL-60(TB) leukemia
NCI-H522 lung = tested on: NCI-H522 lung
UACC-257 melanoma = tested on: UACC-257 melanoma
ACHN renal = tested on: ACHN renal
T-47D breast = tested on: T-47D breast
BT-549 breast = tested on: BT-549 breast
SN12C renal = tested on: SN12C renal
A549 NSCLC = tested on: A549 NSCLC
HOP-62 NSCLC = tested on: HOP-62 NSCLC
IGROV1 ovarian = tested on: IGROV1 ovarian
UACC-62 melanoma = tested on: UACC-62 melanoma
MDA-MB-231 breast = tested on: MDA-MB-231 breast
MDA-MB-435 melanoma = tested on: MDA-MB-435 melanoma
DU-145 prostate = tested on: DU-145 prostate
K-562 leukemia = tested on: K-562 leukemia
OVCAR-8 ovarian = tested on: OVCAR-8 ovarian
NCI-H322M lung = tested on: NCI-H322M lung
NCI-H226 lung = tested on: NCI-H226 lung
OVCAR-5 ovarian = tested on: OVCAR-5 ovarian
SK-MEL-5 melanoma = tested on: SK-MEL-5 melanoma
SW-620 colon = tested on: SW-620 colon
A498 renal = tested on: A498 renal
HCT-116 colon = tested on: HCT-116 colon
MCF7 breast = tested on: MCF7 breast
M14 melanoma = tested on: M14 melanoma
OVCAR-4 ovarian = tested on: OVCAR-4 ovarian
MOLT-4 leukemia = tested on: MOLT-4 leukemia
SK-MEL-28 melanoma = tested on: SK-MEL-28 melanoma
SK-OV-3 ovarian = tested on: SK-OV-3 ovarian

CC(C)(O)C1CCC(Nc2ccc3ncc(-c4cccc(C(F)(F)F)c4)n3n2)CC1 (centres undefined)
GI50 (CAKI-1 renal): 1490 nM
TGI (CAKI-1 renal): 3390 nM
GI50 (RXF 393 renal): 202 nM
TGI (RXF 393 renal): 616 nM
GI50 (PC-3 prostate): 1370 nM
TGI (PC-3 prostate): 3320 nM
GI50 (MDA-MB-468 breast): 1090 nM
TGI (MDA-MB-468 breast): 2640 nM
GI50 (SK-MEL-2 melanoma): 1320 nM
TGI (SK-MEL-2 melanoma): 2620 nM
GI50 (RPMI-8226 leukemia): 190 nM
TGI (RPMI-8226 leukemia): 365 nM
GI50 (NCI-H23 lung): 1460 nM
TGI (NCI-H23 lung): 3300 nM
GI50 (NCI/ADR-RES ovarian): 1380 nM
TGI (NCI/ADR-RES ovarian): 3300 nM
GI50 (SR leukemia): 588 nM
TGI (SR leukemia): 1690 nM
GI50 (HCT-15 colon): 1120 nM
TGI (HCT-15 colon): 2930 nM
GI50 (EKVX NSCLC): 1670 nM
TGI (EKVX NSCLC): 5660 nM
GI50 (HCC-2998 colon): 1220 nM
TGI (HCC-2998 colon): 2750 nM
GI50 (HT29 colon): 1310 nM
TGI (HT29 colon): 3050 nM
GI50 (UO-31 renal): 2120 nM
TGI (UO-31 renal): 12400 nM
GI50 (LOX IMVI melanoma): 1400 nM
TGI (LOX IMVI melanoma): 2780 nM
GI50 (NCI-H460 NSCLC): 1130 nM
TGI (NCI-H460 NSCLC): 2530 nM
GI50 (SF-295 CNS): 1050 nM
TGI (SF-295 CNS): 2400 nM
GI50 (HS 578T breast): 364 nM
TGI (HS 578T breast): 1660 nM
GI50 (HL-60(TB) leukemia): 641 nM
TGI (HL-60(TB) leukemia): 1880 nM
GI50 (NCI-H522 lung): 1030 nM
TGI (NCI-H522 lung): 2560 nM
GI50 (UACC-257 melanoma): 1550 nM
TGI (UACC-257 melanoma): 3080 nM
GI50 (ACHN renal): 1630 nM
TGI (ACHN renal): 5010 nM
GI50 (T-47D breast): 540 nM
TGI (T-47D breast): 2120 nM
GI50 (BT-549 breast): 1450 nM
TGI (BT-549 breast): 3880 nM
GI50 (SN12C renal): 1480 nM
TGI (SN12C renal): 5000 nM
GI50 (A549 NSCLC): 2100 nM
TGI (A549 NSCLC): 7640 nM
GI50 (HOP-62 NSCLC): 1510 nM
TGI (HOP-62 NSCLC): 3600 nM
GI50 (IGROV1 ovarian): 1910 nM
TGI (IGROV1 ovarian): 5230 nM
GI50 (UACC-62 melanoma): 1500 nM
TGI (UACC-62 melanoma): 2840 nM
GI50 (MDA-MB-231 breast): 1130 nM
TGI (MDA-MB-231 breast): 3420 nM
GI50 (MDA-MB-435 melanoma): 1530 nM
TGI (MDA-MB-435 melanoma): 4170 nM
GI50 (DU-145 prostate): 2830 nM
TGI (DU-145 prostate): 12300 nM
GI50 (K-562 leukemia): 891 nM
TGI (K-562 leukemia): 2210 nM
GI50 (OVCAR-8 ovarian): 1770 nM
TGI (OVCAR-8 ovarian): 4710 nM
GI50 (NCI-H322M lung): 1730 nM
TGI (NCI-H322M lung): 3930 nM
GI50 (NCI-H226 lung): 1000 nM
TGI (NCI-H226 lung): 2660 nM
GI50 (OVCAR-5 ovarian): 1820 nM
TGI (OVCAR-5 ovarian): 6510 nM
GI50 (SK-MEL-5 melanoma): 948 nM
TGI (SK-MEL-5 melanoma): 2320 nM
GI50 (SW-620 colon): 1810 nM
TGI (SW-620 colon): 4150 nM
GI50 (A498 renal): 1160 nM
TGI (A498 renal): 2590 nM
GI50 (HCT-116 colon): 1700 nM
TGI (HCT-116 colon): 3370 nM
GI50 (MCF7 breast): 1490 nM
TGI (MCF7 breast): 3120 nM
GI50 (M14 melanoma): 798 nM
TGI (M14 melanoma): 2220 nM
GI50 (OVCAR-4 ovarian): 994 nM
TGI (OVCAR-4 ovarian): 4820 nM
GI50 (MOLT-4 leukemia): 559 nM
TGI (MOLT-4 leukemia): 1860 nM
GI50 (SK-MEL-28 melanoma): 1370 nM
TGI (SK-MEL-28 melanoma): 2690 nM
GI50 (SK-OV-3 ovarian): 1120 nM
TGI (SK-OV-3 ovarian): 2890 nM
